# Test results as given in patent publication US12408666B2, “Pyridyloxy carboxylate derivative, preparation method therefor, herbicidal composition and use thereof” (priority 2018, dated 2025).
# Tests used:
# Indica rice = test: Post-emergence test, crop safety (Table 4); type: in vivo; settings: 3 weeks after treatment
# Method: (§1) Post-emergence test experiment: Monocotyledonous and dicotyledonous weed seeds and main crop seeds (i. e. wheat, corn, rice, soybean, cotton, oilseed, millet and sorghum.) were put into a plastic pot loaded with soil. Then covered with 0.5-2 cm soil, the seeds were allowed to grow in good greenhouse environment. The test plants were treated at 2-3 leaf stage 2 weeks after sowing. The test compounds of the invention were dissolved with acetone respectively, then added with tween-80, and using 1.5 liters per hectare of an emulsible concentrate of methyl oleate as a synergist, and diluted by certain amount of water to certain concentration. The solution was sprayed to the plants with a sprayer. Then the plants were cultured for 3 weeks in the greenhouse, and the experiment result of weed controlling effect after 3 weeks was listed in tables 3-4.
# (§2) […] Echinochloa crusgalli and Cyperus iria were collected from Hunan province of China, and were resistant to ALS inhibitor herbicides.
# Japonica rice = test: Post-emergence test, crop safety (Table 4); type: in vivo; settings: 3 weeks after treatment
# Method: as §1, §2
# Cyperus iria = test: Post-emergence test, ALS-resistant weed (Table 4); type: in vivo; settings: 504 h, 3 weeks, resistant to ALS inhibitor herbicides, read-out: Cyperus iria, activity level (growth inhibition rate)
# Method: as §1
# (§3) Note: the application dose was active ingredient 600 g/ha, plus water 450 kg/ha. Echinochloa crusgalli and Cyperus iria were collected from Hunan province of China, and were resistant to ALS inhibitor herbicides.
# Echinochloa crusgalli = test: Post-emergence test, ALS-resistant weed (Table 4); type: in vivo; settings: Echinochloa crus-galli, 504 h, 3 weeks, resistant to ALS inhibitor herbicides, read-out: Echinochloa crusgalli, activity level (growth inhibition rate)
# Method: as §1, §3
# rice = settings: known compound; cited from earlier work
# [1] = system: Echinochloa crusgalli, Digitaria sanguinalis, Leptochloa chinensis and Setaria viridis; settings: commercial product; cited from earlier work
# Soybean = test: Spray drift test by unmanned gyroplane, neighbouring soybean field; type: in vivo; settings: 600 g/ha applied by unmanned gyroplane, soybean field at 10 meters, gentle breeze
# Method: Broadleaf crops are very sensitive to hormonal herbicides, therefore crop injuries are more likely to occur in case of spray drifting. Tests were conducted in gentle breeze for the compounds of the present invention. The formulation of the compounds of the present invention was applied by DJI unmanned gyroplane with application height of 1 m and water volume of 20 kg/ha. The use rate was 600 g/ha. The active ingredient was dissolved by acetone and diluted to aqueous solution of Tween 80. There's a soybean field at 10 meters from the application area and the height of soybean plants were about 15 cm at the application time.
# Monochoria vaginalis = test: Weed control effect evaluation in rice field; type: in vivo; settings: paddy pot, 50 g/ha, 14 days after treatment, resistant to pyrazosulfuron-ethyl and penoxsulam
# Method: Rice field soil was loaded into a 1/1,000,000 ha pot. The seeds of Monochoria vaginalis were sowed and gently covered with soil, then left to stand still in greenhouse in the state of 0.5-1 cm of water storage. It was kept at 3-4 cm of water storage thereafter. The weeds were treated by dripping the WP or SC water diluents prepared according to the common preparation method of the compounds of the present invention with pipette homogeneously to achieve specified effective amount when Monochoria vaginalis reached 0.5 leaf stage.
# The fertility condition of Monochoria vaginalis 14 days and rice 21 days after the treatment of the compound of the invention with the naked eye.
# Note: The seeds of Monochoria vaginalis were collected from Heilongjing Province of China.
smiles,measurement,setting,value
CC(Oc1nc(F)c(Cl)c(N)c1Cl)C(=O)O (centres unmarked) [Control compound A],"Indica rice, activity level (growth inhibition rate)",Indica rice; 300 g/ha,3 (Level 3: the growth inhibition rate is equal to or greater than 40% and less than 60%)
same,"Indica rice, activity level (growth inhibition rate)",Indica rice; 600 g/ha,3 (Level 3: the growth inhibition rate is equal to or greater than 40% and less than 60%)
same,"Japonica rice, activity level (growth inhibition rate)",Japonica rice; 300 g/ha,2 (Level 2: the growth inhibition rate is equal to or greater than 20% and less than 40%)
same,"Japonica rice, activity level (growth inhibition rate)",Japonica rice; 600 g/ha,3 (Level 3: the growth inhibition rate is equal to or greater than 40% and less than 60%)
same,inhibition at 300 g/ha,Cyperus iria; 300 g/ha,60 to 85%
same,inhibition at 600 g/ha,Cyperus iria,> 85%
same,inhibition at 300 g/ha,Echinochloa crusgalli; 300 g/ha,60 to 85%
same,inhibition at 600 g/ha,Echinochloa crusgalli,> 85%
same,Safety and selectivity,rice,poor safety and low selectivity
CCCCOCC(C)OC(=O)COc1nc(F)c(Cl)c(N)c1Cl (centres unmarked) [Control compound B],"Indica rice, activity level (growth inhibition rate)",Indica rice; 600 g/ha,2 (Level 2: the growth inhibition rate is equal to or greater than 20% and less than 40%)
same,"Japonica rice, activity level (growth inhibition rate)",Japonica rice; 600 g/ha,2 (Level 2: the growth inhibition rate is equal to or greater than 20% and less than 40%)
same,inhibition at 600 g/ha,Cyperus iria,40 to 60%
same,inhibition at 600 g/ha,Echinochloa crusgalli,20 to 40%
same,Efficacy on key grasses in rice,[1],very poor
CCOC(=O)C(C)Oc1nc(F)c(Cl)c(N)c1Cl (centres unmarked) [Control compound C],"Soybean, injury level from spray drift",Soybean,3 (Level 3: the growth inhibition rate is equal to or greater than 40% and less than 60%)
COc1cc(OC)nc(Oc2cccc(Oc3nc(OC)cc(OC)n3)c2C(=O)O)n1 [Bispyribac-sodium],"Indica rice, activity level (growth inhibition rate)",Indica rice; 100 g/ha,2 (Level 2: the growth inhibition rate is equal to or greater than 20% and less than 40%)
same,"Japonica rice, activity level (growth inhibition rate)",Japonica rice; 100 g/ha,4 (Level 4: the growth inhibition rate is equal to or greater than 60% and less than 85%)
same,inhibition at 100 g/ha,Cyperus iria; 100 g/ha,20 to 40%
same,inhibition at 100 g/ha,Echinochloa crusgalli; 100 g/ha,5 to 20%
COc1cnc(OC)n2nc(NS(=O)(=O)c3c(OCC(F)F)cccc3C(F)(F)F)nc12 [Penoxsulam],"Monochoria Vaginalis, activity level",Monochoria vaginalis,1 (Level 1: the growth inhibition rate is equal to or greater than 5% and less than 20%)
